In US9029386B2, “Pyridine derivatives useful as kinase inhibitors” (YM Biosciences Australia Pty Ltd, priority 2006, dated 2015):

Key:
[1] = target: T1, kinase domain of human c-kit (Homo sapiens, UniProt P10721); test: Alphascreen protein tyrosine kinase assay, c-KIT; type: biochemical
T1 construct: from codon M552 to end; made in house; host or cells: Sf9 insect cells (baculovirus)
Protocol: (§1) For screening purposes, compounds were diluted in 96 well plates at a concentration of 20 μM. Plates were warmed at 37° C. for 30 minutes before assay.
The kinase domain of human c-kit from codon M552 to end was cloned into the pDEST-20 expression vector (Invitrogen). The c-kit plasmid was then transformed into competent DH10Bac cells (Gibco), and the recombinant baculovirus produced prepared for transfection into Sf9 insect cells.
(§2) Baculovirus preparations from each of construct were infected into five liters of SF9 cells (Invitrogen) grown in SF-900 medium (Invitrogen) to a cell density of approximately 1−2×10^6 cells/ml. […] Cells were harvested and lysed. Tyrosine kinase domains were purified by affinity chromatography on a glutathione-agarose column (Scientifix Pty. Ltd. catalog #: GSH-200).
(§3) Kinase assays were performed in 384 well Optiplates (Packard) using an Alphascreen Protein Tyrosine Kinase kit. […] Alphascreen phosphotyrosine acceptor beads followed by streptavidin donor beads were added under subdued light. The Alphascreen plates were read on a Packard Fusion Alpha. Inhibitors were added to the assays thirty minutes prior to the addition of ATP. Inhibitors were added in aqueous DMSO, with DMSO concentrations never exceeding 1%.

[2] = target: T2, KDR protein kinase (Homo sapiens, UniProt P35968); test: Alphascreen protein tyrosine kinase assay, KDR; type: biochemical
T2 construct: purchased Millipore 14-630M
T2 sequence (P35968 20-1356): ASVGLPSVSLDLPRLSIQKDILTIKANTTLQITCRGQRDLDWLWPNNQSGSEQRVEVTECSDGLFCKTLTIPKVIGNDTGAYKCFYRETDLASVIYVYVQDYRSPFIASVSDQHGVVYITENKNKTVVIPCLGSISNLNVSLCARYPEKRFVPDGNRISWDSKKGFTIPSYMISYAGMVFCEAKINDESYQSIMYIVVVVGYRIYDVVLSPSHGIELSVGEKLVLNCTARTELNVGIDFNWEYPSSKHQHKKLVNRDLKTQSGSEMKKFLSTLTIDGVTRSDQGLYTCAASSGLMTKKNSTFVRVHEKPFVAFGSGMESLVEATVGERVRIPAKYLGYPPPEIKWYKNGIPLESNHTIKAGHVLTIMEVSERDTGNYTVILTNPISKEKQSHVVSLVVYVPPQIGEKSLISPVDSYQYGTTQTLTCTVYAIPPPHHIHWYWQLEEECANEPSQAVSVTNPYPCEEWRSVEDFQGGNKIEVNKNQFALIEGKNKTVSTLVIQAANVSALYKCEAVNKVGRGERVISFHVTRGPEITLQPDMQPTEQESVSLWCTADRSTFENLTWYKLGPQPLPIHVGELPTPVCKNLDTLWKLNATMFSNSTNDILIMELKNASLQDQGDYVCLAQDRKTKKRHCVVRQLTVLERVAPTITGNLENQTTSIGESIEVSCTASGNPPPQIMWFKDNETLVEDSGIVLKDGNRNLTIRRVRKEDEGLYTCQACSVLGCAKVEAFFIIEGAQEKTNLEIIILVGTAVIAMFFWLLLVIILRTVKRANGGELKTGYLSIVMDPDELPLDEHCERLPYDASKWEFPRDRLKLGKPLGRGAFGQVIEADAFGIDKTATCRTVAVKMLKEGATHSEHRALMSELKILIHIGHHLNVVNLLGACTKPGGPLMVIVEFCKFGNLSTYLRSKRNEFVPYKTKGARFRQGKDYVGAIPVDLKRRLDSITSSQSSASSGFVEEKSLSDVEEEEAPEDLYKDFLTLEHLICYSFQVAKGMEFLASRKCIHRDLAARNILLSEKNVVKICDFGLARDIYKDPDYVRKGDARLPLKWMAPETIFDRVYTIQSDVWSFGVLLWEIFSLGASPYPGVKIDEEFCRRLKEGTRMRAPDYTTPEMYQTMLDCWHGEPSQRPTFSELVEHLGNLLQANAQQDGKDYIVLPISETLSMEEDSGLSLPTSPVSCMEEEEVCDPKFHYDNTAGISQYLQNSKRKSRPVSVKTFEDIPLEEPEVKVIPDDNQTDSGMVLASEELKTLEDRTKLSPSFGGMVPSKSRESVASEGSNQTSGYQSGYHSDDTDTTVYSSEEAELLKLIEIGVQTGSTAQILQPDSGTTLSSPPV
Protocol: as §1
FLT-3 and PDGFR β tyrosine kinase enzymes were purchased from Upstate Cell Signalling Solutions, CA, USA (flt-3 catalog #: 14-500 and PDGFR β catalog #: 14-463). KDR protein kinase enzyme was purchased from Millipore (catalogue #14-630M).
Kinase assays were performed in 384 well Optiplates (Packard) using an Alphascreen Protein Tyrosine Kinase kit. […] The biotinylated peptides Biotin-[…]-NH2 for c-KIT and PDGFRβ and Biotin-[…]-NH2 for CSF1-R and FLT-3 (final concentration 0.1-3 μM) were used as substrates. Alphascreen phosphotyrosine acceptor beads followed by streptavidin donor beads were added under subdued light. The Alphascreen plates were read on a Packard Fusion Alpha. Inhibitors were added to the assays thirty minutes prior to the addition of ATP. Inhibitors were added in aqueous DMSO, with DMSO concentrations never exceeding 1%.

[3] = tested on: mNFS-60; test: Cellular assay (Alamar Blue), mNFS-60 with human M-CSF; type: cell-based; conditions: human M-CSF at 20 ng/ml, 72 hr
Protocol: (§4) Cells for the assays were prepared by harvesting cells from culture, and then diluting them in the appropriate growth medium to between 40,000 cell/mL and 600,000 cell/mL, depending on the cell line.
(§5) The compounds to be tested were added (104, 10× final concentration) to a flat bottomed 96-well plate. The cellular suspension (80 μL per well) was added, and one hour later the growth factor was added (human M-CSF at 20 ng/ml for mNFS-60, mouse IL-3 at 5 ng/ml for Baf3-WT). The plate was then incubated for 72 hr at 37° C., 5% CO2. Alamar Blue (10^4 per well) was added and the plates returned to the incubator for a further 4-8 hours.
(§6) The plates were then read using a fluorescence plate reader at excitation 544 nm and emission 590 nm.

[4] = tested on: Baf3-WT; test: Cellular assay (Alamar Blue), Baf3-WT with mouse IL-3; type: cell-based; conditions: mouse IL-3 at 5 ng/ml, 72 hr
Protocol: as §4, §5, §6

[5] = target: T3, kinase domain of human CSF1-R (Homo sapiens, UniProt P07333); test: Alphascreen protein tyrosine kinase assay, CSF-1R; type: biochemical
T3 construct: from codon I553 to Q961; made in house; host or cells: Sf9 insect cells (baculovirus)
T3 sequence (P07333 553-961): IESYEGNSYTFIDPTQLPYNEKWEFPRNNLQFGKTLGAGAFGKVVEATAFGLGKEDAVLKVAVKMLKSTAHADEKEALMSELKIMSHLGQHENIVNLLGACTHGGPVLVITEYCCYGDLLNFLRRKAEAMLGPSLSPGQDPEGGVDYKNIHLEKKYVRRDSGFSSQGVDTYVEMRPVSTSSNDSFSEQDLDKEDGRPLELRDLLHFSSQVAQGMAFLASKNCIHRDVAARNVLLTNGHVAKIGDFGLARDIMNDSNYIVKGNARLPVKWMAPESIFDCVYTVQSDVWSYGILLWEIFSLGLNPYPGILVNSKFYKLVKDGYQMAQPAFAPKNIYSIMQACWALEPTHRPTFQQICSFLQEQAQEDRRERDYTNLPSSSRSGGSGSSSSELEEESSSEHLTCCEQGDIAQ
Protocol: as §1
The kinase domain of human CSF1-R from codon I553 to Q961 was cloned into the pDEST-20 expression vector (Invitrogen). The CSF1-R plasmid was then transformed into competent DH10Bac cells (Gibco), and the recombinant baculovirus produced prepared for transfection into Sf9 insect cells.
as §2, §3

[6] = target: T4, PDGFR β tyrosine kinase (Homo sapiens, UniProt P09619); test: Alphascreen protein tyrosine kinase assay, PDGFRβ; type: biochemical
T4 construct: purchased Upstate Cell Signalling Solutions, CA, USA 14-463
T4 sequence (P09619 33-1106): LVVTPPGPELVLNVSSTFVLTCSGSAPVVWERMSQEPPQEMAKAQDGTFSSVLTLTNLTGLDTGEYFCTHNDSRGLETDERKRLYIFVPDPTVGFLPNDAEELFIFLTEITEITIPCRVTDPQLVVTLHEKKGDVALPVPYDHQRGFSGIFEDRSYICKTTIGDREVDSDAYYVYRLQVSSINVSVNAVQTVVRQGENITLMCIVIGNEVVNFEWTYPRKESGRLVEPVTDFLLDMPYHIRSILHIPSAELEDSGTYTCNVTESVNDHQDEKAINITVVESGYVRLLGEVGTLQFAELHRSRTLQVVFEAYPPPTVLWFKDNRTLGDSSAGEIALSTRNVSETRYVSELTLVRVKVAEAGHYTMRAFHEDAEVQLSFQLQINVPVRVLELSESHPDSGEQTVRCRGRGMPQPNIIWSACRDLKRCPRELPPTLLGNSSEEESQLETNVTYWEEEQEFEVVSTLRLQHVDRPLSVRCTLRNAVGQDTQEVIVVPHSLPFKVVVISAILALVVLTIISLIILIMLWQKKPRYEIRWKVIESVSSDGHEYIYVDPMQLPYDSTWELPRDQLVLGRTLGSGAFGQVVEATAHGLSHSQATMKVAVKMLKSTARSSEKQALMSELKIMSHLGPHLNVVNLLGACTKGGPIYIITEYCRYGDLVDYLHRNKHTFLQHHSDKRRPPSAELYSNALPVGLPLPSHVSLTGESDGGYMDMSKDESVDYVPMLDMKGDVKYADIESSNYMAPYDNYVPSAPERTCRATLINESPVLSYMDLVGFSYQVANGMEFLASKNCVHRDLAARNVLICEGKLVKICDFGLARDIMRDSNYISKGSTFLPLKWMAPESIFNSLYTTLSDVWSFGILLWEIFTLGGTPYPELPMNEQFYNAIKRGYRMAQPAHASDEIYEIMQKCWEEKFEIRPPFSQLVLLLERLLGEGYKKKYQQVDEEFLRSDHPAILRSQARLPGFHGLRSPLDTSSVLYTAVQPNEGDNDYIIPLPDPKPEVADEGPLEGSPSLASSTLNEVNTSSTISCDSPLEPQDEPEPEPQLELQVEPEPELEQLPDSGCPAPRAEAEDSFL

T1 sequence (P10721 552-976 limits assumed): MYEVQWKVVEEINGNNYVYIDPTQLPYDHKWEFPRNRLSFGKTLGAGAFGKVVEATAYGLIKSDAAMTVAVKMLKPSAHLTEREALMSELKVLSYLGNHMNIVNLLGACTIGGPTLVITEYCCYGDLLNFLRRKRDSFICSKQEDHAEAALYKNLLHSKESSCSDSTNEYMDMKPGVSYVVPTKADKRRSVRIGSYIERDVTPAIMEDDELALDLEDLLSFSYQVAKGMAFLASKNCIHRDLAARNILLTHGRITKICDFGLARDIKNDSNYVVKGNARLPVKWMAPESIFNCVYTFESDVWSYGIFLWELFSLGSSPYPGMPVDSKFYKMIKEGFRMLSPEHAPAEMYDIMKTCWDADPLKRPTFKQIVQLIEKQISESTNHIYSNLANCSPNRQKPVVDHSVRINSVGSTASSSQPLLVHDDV

Row | Structure (SMILES) | IC50 [1] [nM] | IC50 [2] [nM] | IC50 [4] [nM] | IC50 [5] [nM] | IC50 [6] [nM] | IC50 [3] [nM]
1 | C[C@H](Nc1cncc(-c2ccc(CO)cc2)n1)c1cccc(NC(=O)c2cccc(C(F)(F)F)c2)c1 [Compound 174, (S)—N-(3-(1-(6-(4-(hydroxymethyl)phenyl)pyrazin-2-ylamino)ethyl)phenyl)-3-(trifluoromethyl)benzamide] | < 100 | < 100 | > 10000 | < 100 |  | < 200
2 | C[C@H](Nc1cncc(-c2cccc(CO)c2)n1)c1cccc(NC(=O)c2cccc(C(F)(F)F)c2)c1 [Compound 185] | < 1000 | < 100 | < 10000 | < 100 |  | < 200
3 | Cc1ccc(NC(=O)c2cccc(C(F)(F)F)c2)cc1[C@H](C)Nc1cncc(Cl)n1 [Compound 169] | < 1000 | < 100 | < 10000 | < 1000 |  | < 200
4 | C[C@H](Nc1cncc(-c2ccc(S(C)(=O)=O)cc2)n1)c1cccc(NC(=O)c2cccc(C(F)(F)F)c2)c1 [Compound 182] | < 1000 | < 100 | > 10000 | < 100 |  | < 200
5 | Cc1cn(-c2cncc(N[C@@H](C)c3cccc(NC(=O)c4cccc(C(F)(F)F)c4)c3)n2)cn1 [Compound 179] | < 100 | < 100 | < 10000 | < 100 |  | < 200
6 | C[C@H](Nc1cncc(-c2cccc(N3CCOCC3)c2)n1)c1cccc(NC(=O)c2ccc(F)c(Cl)c2)c1 [Compound 189] | < 1000 | < 100 | > 10000 | < 100 |  | < 200
7 | C[C@H](Nc1cncc(-c2ccc(NS(C)(=O)=O)cc2)n1)c1cccc(NC(=O)c2cccc(C(F)(F)F)c2)c1 [Compound 183] | < 1000 | < 100 | < 10000 | < 100 |  | < 200
8 | Cc1cncn1-c1cncc(N[C@@H](C)c2cccc(NC(=O)c3cccc(C(F)(F)F)c3)c2)n1 [Compound 188] | < 100 | < 100 | > 10000 | < 100 |  | < 200
9 | COc1cccc(C(=O)Nc2cccc([C@H](C)Nc3cncc(-c4cccc(N5CCOCC5)c4)n3)c2)c1 [Compound 190] | < 100 | < 100 | > 10000 | < 100 |  | < 200
10 | C[C@H](Nc1cncc(-c2ccc(N3CCOCC3)nc2)n1)c1cccc(NC(=O)c2cccc(C(F)(F)F)c2)c1 [Compound 187] | < 1000 | < 100 | > 10000 | < 100 |  | < 200
11 | C[C@H](Nc1cncc(Cl)n1)c1cccc(NC(=O)c2cccc(CN3CCN(C)CC3)c2)c1 [Compound 127] |  |  | > 10000 |  |  | < 1000
12 | C[C@H](Nc1cncc(-c2ccc(S(N)(=O)=O)cc2)n1)c1cccc(NC(=O)c2cccc(C(F)(F)F)c2)c1 [Compound 173] |  |  | > 10000 | < 100 |  | < 1000
13 | Cc1ccc(F)c(C(=O)Nc2cccc([C@H](C)Nc3cncc(-c4cccc(N5CCOCC5)c4)n3)c2)c1 [Compound 192] | < 100 | < 100 | > 10000 | < 100 |  | < 200
14 | C[C@H](Nc1cncc(-c2cccc(S(C)(=O)=O)c2)n1)c1cccc(NC(=O)c2cccc(C(F)(F)F)c2)c1 [Compound 181] | < 100 | < 100 | < 10000 | < 100 |  | < 200
15 | C[C@H](Nc1cncc(-c2ccc(CN3CCN(C)CC3)cc2)n1)c1cccc(NC(=O)c2cccc(C(F)(F)F)c2)c1 [Compound 191] | < 100 | < 100 | < 10000 | < 100 |  | < 200
16 | C[C@H](Nc1cncc(-c2cccc(S(N)(=O)=O)c2)n1)c1cccc(NC(=O)c2cccc(C(F)(F)F)c2)c1 [Compound 178] | < 1000 | < 100 | < 10000 | < 100 |  | < 200

The next lines start with results.

Row | IC50 [1] [nM] | IC50 [2] [nM] | IC50 [4] [nM] | IC50 [5] [nM] | IC50 [6] [nM] | Structure (SMILES) | IC50 [3] [nM]
17 | < 100 |  |  | < 100 | < 1000 | C[C@H](Nc1cncc(-c2cccc(NS(C)(=O)=O)c2)n1)c1cccc(NC(=O)c2cccnc2)c1 [Compound 16] | 
18 | < 100 |  |  | < 100 | < 1000 | C[C@H](Nc1cncc(-c2cn[nH]c2)n1)c1cccc(NC(=O)c2cccnc2)c1 [Compound 19] | 
19 | < 100 | < 100 | > 10000 | < 100 | < 100 | Cc1cncc(C(=O)Nc2cccc([C@H](C)Nc3cncc(-c4ccc(N5CCOCC5)cc4)n3)c2)c1 [Compound 65] | < 200
20 | < 100 | < 100 | > 10000 |  | < 100 | Cc1cncc(C(=O)Nc2cccc([C@H](C)Nc3cncc(Br)c3)c2)c1 [Compound 62] | < 1000
21 | < 100 |  |  | < 100 | < 100 | COc1cccc(-c2cncc(N[C@@H](C)c3cccc(NC(=O)c4cccnc4)c3)n2)c1 [Compound 13] | 
22 | < 100 |  |  | < 100 | < 1000 | CC(Nc1cncc(-c2ccc(N)cc2)n1)c1cccc(NC(=O)c2cccnc2)c1 (racemic) [Compound 22] | 
23 | < 100 |  |  | < 100 | < 1000 | COc1ccc(-c2cncc(N[C@@H](C)c3cccc(NC(=O)c4cccnc4)c3)n2)c(OC)n1 [Compound 20] | 
24 | < 1000 |  |  | < 100 | < 1000 | COc1cc(-c2cncc(N[C@@H](C)c3cccc(NC(=O)c4cncc(C)c4)c3)n2)ccc1OP(=O)(O)O [Compound 35] | 
25 | < 100 |  |  | < 100 | < 1000 | COc1cccc(-c2cncc(N[C@@H](C)c3cccc(NC(=O)c4ccc(C)nc4)c3)n2)c1 [Compound 36] | 
26 | < 1000 |  |  | < 1000 | < 1000 | C[C@H](Nc1cncc(-c2cccnc2)n1)c1cccc(NC(=O)c2cccnc2)c1 [Compound 11] | 
27 | < 1000 | < 100 | > 10000 | < 100 | < 100 | COc1cccc(-c2cncc(N[C@@H](C)c3cccc(NC(=O)c4cccc(C)c4)c3)n2)c1 [Compound 100] | < 200
28 | < 100 |  |  |  | < 100 | COc1cc(-c2cncc(N[C@@H](C)c3cccc(NC(=O)c4cccnc4)c3)n2)ccc1O [Compound 3] | 
